One experiment has as its target T1, 5-Lipoxygenase (Rattus norvegicus, UniProt P12527).
T1 construct: host or cells: RBL-1 rat basophilic leukemia cells
T1 sequence (P12527 1-673): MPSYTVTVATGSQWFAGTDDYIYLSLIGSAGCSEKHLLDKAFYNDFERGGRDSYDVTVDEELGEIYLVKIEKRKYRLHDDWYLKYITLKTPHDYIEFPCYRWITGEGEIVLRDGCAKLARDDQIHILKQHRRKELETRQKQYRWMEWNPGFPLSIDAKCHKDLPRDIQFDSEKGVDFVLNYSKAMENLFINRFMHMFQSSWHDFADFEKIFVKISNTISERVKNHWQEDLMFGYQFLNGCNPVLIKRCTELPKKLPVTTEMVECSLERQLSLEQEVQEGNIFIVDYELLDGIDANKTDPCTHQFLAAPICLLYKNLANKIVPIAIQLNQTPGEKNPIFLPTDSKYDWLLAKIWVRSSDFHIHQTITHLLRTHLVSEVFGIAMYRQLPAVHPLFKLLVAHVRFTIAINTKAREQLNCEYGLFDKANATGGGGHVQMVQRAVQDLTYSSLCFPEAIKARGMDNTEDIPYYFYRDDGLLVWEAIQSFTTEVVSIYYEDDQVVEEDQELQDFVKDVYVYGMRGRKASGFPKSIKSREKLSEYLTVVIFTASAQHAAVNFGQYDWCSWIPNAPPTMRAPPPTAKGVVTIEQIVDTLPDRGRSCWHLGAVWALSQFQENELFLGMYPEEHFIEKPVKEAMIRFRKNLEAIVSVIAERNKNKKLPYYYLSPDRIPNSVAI
In words: ARBL whole cell 5-lipoxygenase assay (LTB4 formation in RBL-1 cells, A23187 stimulated). Type of experiment: cell-based. The conditions noted are these: RBL-1 cells; for IC50: read-out: ARBL IC50 (inhibition of LTB4 formation); for inhibition at 16 µM: read-out: ARBL % inhibition of LTB4. Here is the method:
(§1) ARBL/ARBC Whole Cell 5-Lipoxygenase and Cyclooxygenase Assays
(§2) The rat basophilic leukemia cell line (RBL-1) was obtained from the American Type Culture Collection (Rockville, MD).
(§3) Radioimmunoassay (RIA) kits of LTB4 and PGF2α were obtained from Amersham (Arlington Heights, IL) and Seragen (Boston, MA), respectively.
(§4) RBL-1 cells are grown in suspension culture in Eagle's minimum essential medium supplemented with 12% fetal bovine serum at 37° C. in an incubator supplied with air-5% carbon dioxide. Cells are harvested by centrifugation. They are washed with cold phosphate buffered saline pH 7.4 (PBS; NaCl, 7.1 g; Na2 HPO4, 1.15 g; KH2 PO4, 0.2 g; and KCl, 0.2 g/l). Cells are finally suspended in PBS containing 1.0 mM calcium at a density of 2×10^6 cells/ml. Cells are incubated with and without test agent (in DMSO) (1% DMSO is without effect on arachidonic acid metabolism) for ten minutes at room temperature. Calcium ionophore A23187 (5 μM) is added and cells are incubated for seven minutes at 37° C. The reaction is stopped by chilling the tubes on ice for ten minutes. Cells are separated by centrifugation and the supernatant is stored at -20° C. Aliquots (100 μl) are analyzed for LTB4 and PGF2α using radioimmunoassay kits as provided by the supplier.
(§5) Tables 1-4 contain biochemical data obtained from this whole cell assay either as IC50 s which are calculated as the amount of test compound causing 50% inhibition of LTB4 or PGF2α formation or % inhibition of LTB4 or PGF2α at the indicated amount expressed as μM.

For a further experiment, the target named is T2, Cyclooxygenase (Rattus norvegicus, UniProt Q63921).
T2 construct: host or cells: RBL-1 rat basophilic leukemia cells
T2 sequence (Q63921 27-602): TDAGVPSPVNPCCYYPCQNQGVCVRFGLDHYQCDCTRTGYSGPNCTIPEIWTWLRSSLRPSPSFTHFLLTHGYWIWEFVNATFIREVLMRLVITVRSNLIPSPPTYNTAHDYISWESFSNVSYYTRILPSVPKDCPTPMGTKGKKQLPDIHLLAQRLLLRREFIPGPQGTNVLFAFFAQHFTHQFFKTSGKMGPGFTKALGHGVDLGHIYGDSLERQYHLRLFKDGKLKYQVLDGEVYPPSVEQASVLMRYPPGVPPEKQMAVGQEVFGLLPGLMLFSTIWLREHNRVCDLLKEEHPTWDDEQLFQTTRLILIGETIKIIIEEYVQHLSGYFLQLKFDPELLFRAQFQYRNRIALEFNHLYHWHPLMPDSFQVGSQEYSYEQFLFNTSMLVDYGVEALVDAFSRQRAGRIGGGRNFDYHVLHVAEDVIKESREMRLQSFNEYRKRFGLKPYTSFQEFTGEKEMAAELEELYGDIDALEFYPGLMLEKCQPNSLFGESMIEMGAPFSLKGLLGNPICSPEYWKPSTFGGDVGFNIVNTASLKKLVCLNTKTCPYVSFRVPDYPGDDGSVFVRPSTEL
In words: ARBC whole cell cyclooxygenase assay (PGF2α formation in RBL-1 cells, A23187 stimulated). The format is cell-based. Conditions: for inhibition at 32 µM: RBL-1, Table 3, read-out: ARBC % inhibition (N @ 32); for IC50 / inhibition at 16 µM: RBL-1 cells; for IC50: read-out: ARBC IC50 (inhibition of PGF2α formation); for inhibition at 16 µM: read-out: ARBC % inhibition of PGF2α. On the procedure: as §1, §2, §3, §4, §5

This is an account of results in patent US5112846A, “N-hydroxyamide, N-hydroxythioamide, hydroxyurea, and N-hydroxythiourea derivatives of selected nsaids as antiinflammatory agents” (Warner-Lambert Company, priority 1990, dated 1992).

Usually IC50 stands for the concentration at which inhibition is half-maximal. In general, inhibition refers to the drop in the measured response relative to a control, in per cent.

`CC(=O)N(O)Cc1ccccc1Nc1c(Cl)cccc1Cl` [Example 48, N-[[(2,6-Dichlorophenyl)amino]phenyl]methyl-N-hydroxyacetamide]: the IC50 on 5-Lipoxygenase was 1300 nM. The inhibition at 32 µM on Cyclooxygenase was less than 40%.
In the case of `CC(=O)N(O)C(C)c1ccccc1Nc1c(Cl)ccc(C)c1Cl` (stereo not shown) [Example 53, N-[1-[2-[(2,6-dichloro-3-methylphenyl)amino]phenyl]ethyl]-N-hydroxyacetamide], on 5-Lipoxygenase, the IC50 is 1800 nM. Also, the inhibition at 32 µM on Cyclooxygenase was less than 40%.
Take `CC(=O)N(O)Cc1ccccc1Nc1c(Cl)ccc(C)c1Cl` [Example 54, N-[[2-[(2,6-Dichloro-3-methylphenyl)amino]phenyl]methyl]-N-hydroxyacetamide]: the 50% inhibitory concentration (IC50) at 5-Lipoxygenase is 180 nM; on Cyclooxygenase, 5000 nM.
In the same order, the values of `CC(=O)N(O)Cc1ccccc1Nc1cccc(C(F)(F)F)c1` [Example 55] are 280 nM and 5200 nM.
In the same order, the values of `CNC(=O)N(O)Cc1ccccc1Nc1cccc(C(F)(F)F)c1` [Example 56] are 120 nM and 2200 nM.
With `CCOC(=O)N(O)Cc1ccccc1Nc1cccc(C(F)(F)F)c1` [Example 57, N-Hydroxy-N-[[2-[[3-(trifluoromethyl)phenyl]amino]phenyl]methyl]carbamic acid, ethyl ester], the figures for the inhibition at 16 µM on 5-Lipoxygenase and at Cyclooxygenase were 100% and 91%, respectively.
As for `CCOC(=O)CC(=O)N(O)Cc1c(C)n(C(=O)c2ccc(Cl)cc2)c2ccc(OC)cc12` [Example 64, 3-[[[1-(4-Chlorobenzoyl)-5-methoxy-2-methyl-1H-indol-3-yl]methyl]hydroxyamino]-3-oxo-propanoic acid, ethyl ester], the IC50 on 5-Lipoxygenase was determined as 1100 nM; on Cyclooxygenase, 14000 nM.
Take `COC(=O)CCC(=O)N(O)Cc1c(C)n(C(=O)c2ccc(Cl)cc2)c2ccc(OC)cc12` [Example 65, 4-[[[1-(4-Chlorobenzoyl)-5-methoxy-2-methyl-1H-indol-3-yl]methyl]hydroxyamino]-4-oxo-butanoic acid, methyl ester]: the 50% inhibitory concentration (IC50) is 1300 nM at 5-Lipoxygenase and 9400 nM on Cyclooxygenase.
`COc1ccc2c(c1)c(CN(O)C(=O)N(C)C)c(C)n2C(=O)c1ccc(Cl)cc1` [Example 70, 1-(4-Chlorobenzoyl)-N-[(dimethylamino)carbonyl]-N-hydroxy-5-methoxy-2-methyl-1H-indole-3-methanamine]: the inhibition at 16 µM at 5-Lipoxygenase was 100%; at Cyclooxygenase, 73%.
In the same order, the values of `C=CCNC(=O)N(O)Cc1c(C)n(C(=O)c2ccc(Cl)cc2)c2ccc(OC)cc12` [Example 71, 1-(4-Chlorobenzoyl)-N-hydroxy-5-methoxy-2-methyl-N-[(2-propenylamino)carbonyl]-1H-indole-3-methanamine] are 100% and 50%.
Regarding `CNC(=S)N(O)Cc1c(C)n(C(=O)c2ccc(Cl)cc2)c2ccc(OC)cc12` [Example 74, 1-(4-Chlorobenzoyl)-N-hydroxy-5-methoxy-2-methyl-N-[(methylamino)thioxomethyl]-1H-indole-3-methanamine], the IC50 was 400 nM on 5-Lipoxygenase and 7100 nM on Cyclooxygenase.
